# What was measured:
# smallflower flatsedge = assay: Test B flood test smallflower flatsedge; type: in vivo, Cyperus difformis
# Procedure, shortened: (§1)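 Plants were grown to the 2-leaf stage before treatment with test chemical, then held in a greenhouse for twelve to sixteen days. Injury was visually rated against untreated controls on a 0–10 scale, where 0 is no effect and 10 is complete control.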
# duck salad = assay: Test B flood test duck salad; type: in vivo, Heteranthera limosa
# Procedure, shortened: as §1
# bamyardgrass = assay: Test B flood test barnyardgrass; type: in vivo, Echinochloa crus-galli
# Procedure, shortened: as §1
# rice = assay: Test B flood test rice; type: in vivo, Oryza sativa
# Method: At the same time, these crop and weed species were also treated with postemergence applications of test chemicals formulated in the same manner. Plants ranged in height from 2 to 18 cm (1- to 4-leaf stage) for postemergence treatments. Plant species in the flood test consisted of rice (Oryza sativa), smallflower flatsedge (Cyperus difformis), duck salad (Heteranthera limosa) and bamyardgrass (Echinochloa crus-galli) grown to the 2-leaf stage for testing. Treated plants and controls were maintained in a greenhouse for twelve to sixteen days, after which all species were compared to controls and visually evaluated. Plant response ratings, summarized in Table B, are based on a scale of 0 to 10 where 0 is no effect and 10 is complete control. A dash (−) response means no test result.
# corn = assay: Test B pre/postemergence corn; type: in vivo, Zea mays
# Procedure, shortened: (§2)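 Test chemicals in a non-phytotoxic solvent mixture with surfactant were sprayed preemergence onto planted seeds and postemergence onto plants 2 to 18 cm tall (1- to 4-leaf stage). After twelve to sixteen days in a greenhouse, injury was visually rated against untreated controls from 0 (no effect) to 10 (complete control).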
# soybean = assay: Test B pre/postemergence soybean; type: in vivo, Glycine max; settings: Preemergence, scale of 0 to 10 where 0 is no effect and 10 is complete control
# Procedure, shortened: as §2
# rape = assay: Test B pre/postemergence rape; type: in vivo, Brassica napus; settings: Preemergence, scale of 0 to 10 where 0 is no effect and 10 is complete control
# Procedure, shortened: as §2
# pigweed = assay: Test B pre/postemergence pigweed; type: in vivo, Amaranthus retroflexus; settings: Preemergence, scale of 0 to 10 where 0 is no effect and 10 is complete control
# Procedure, shortened: as §2
# giant foxtail = assay: Test B pre/postemergence giant foxtail; type: in vivo, Setaria faberii; settings: Preemergence, scale of 0 to 10 where 0 is no effect and 10 is complete control
# Procedure, shortened: as §2
# sugar beet = assay: Test B pre/postemergence sugar beet; type: in vivo, Beta vulgaris; settings: Preemergence, scale of 0 to 10 where 0 is no effect and 10 is complete control
# Procedure, shortened: as §2
# wheat = assay: Test B pre/postemergence wheat; type: in vivo, Triticum aestivum; settings: Preemergence, scale of 0 to 10 where 0 is no effect and 10 is complete control
# Procedure, shortened: as §2
# bedstraw = assay: Test B pre/postemergence bedstraw; type: in vivo, Galium aparine; settings: Preemergence
# Procedure, shortened: as §2
# cocklebur = assay: Test B pre/postemergence cocklebur; type: in vivo, Xanthium strumarium; settings: Preemergence
# Procedure, shortened: as §2
# blackgrass = assay: Test B pre/postemergence blackgrass; type: in vivo, Alopecurus myosuroides; settings: Preemergence
# Procedure, shortened: as §2
# crabgrass = assay: Test B pre/postemergence crabgrass; type: in vivo, Digitaria sanguinalis; settings: Preemergence
# Procedure, shortened: as §2
# surinam grass = assay: Test B pre/postemergence surinam grass; type: in vivo, Brachiaria decumbens; settings: Preemergence
# Procedure, shortened: as §2
# purple nutsedge = assay: Test B pre/postemergence purple nutsedge; type: in vivo, Cyperus rotundus; settings: Preemergence, Rate 62 g/ha; scale of 0 to 10 where 0 is no effect and 10 is complete control
# Procedure, shortened: as §2
# wild oat = assay: Test B pre/postemergence wild oat; type: in vivo, Avena fatua; settings: Preemergence, scale of 0 to 10 where 0 is no effect and 10 is complete control
# Procedure, shortened: as §2
# morningglory = assay: Test B pre/postemergence morningglory; type: in vivo, Ipomoea hederacea; settings: Preemergence, scale of 0 to 10 where 0 is no effect and 10 is complete control
# Procedure, shortened: as §2
# velvetleaf = assay: Test B pre/postemergence velvetleaf; type: in vivo, Abutilon theophrasti; settings: Preemergence, scale of 0 to 10 where 0 is no effect and 10 is complete control
# Procedure, shortened: as §2
# [1] = Postemergence, Rate 62 g/ha, scale 0 to 10, 0 is no effect, 10 is complete control
# [2] = Rate 125 g/ha, Postemergence section (flood test species), scale 0 to 10, 0 no effect, 10 complete control
# [3] = Rate 500 g/ha, listed under Postemergence (flood test species), scale 0 to 10, 0 no effect, 10 complete control
# [4] = flood test, listed under Postemergence, Rate 250 g/ha, scale 0 to 10, 0 no effect, 10 complete control
# [5] = Rate 62 g/ha, flood test species, Pre-emergence, visual evaluation after twelve to sixteen days
# [6] = Rate 125 g/ha, under heading Pre-emergence, flood test species, visual evaluation after twelve to sixteen days
# [7] = Rate 250 g/ha, Pre-emergence (flood test species), scale 0 to 10, 0 is no effect, 10 is complete control
# [8] = Rate 500 g/ha, Pre-emergence section of Table B, 0 to 10 scale (0 no effect, 10 complete control)
# [9] = Rate 62 g/ha, scale of 0 to 10 where 0 is no effect and 10 is complete control
# [10] = Rate 125 g/ha, scale of 0 to 10 where 0 is no effect and 10 is complete control
# [11] = Rate 250 g/ha, scale 0 to 10 (0 no effect, 10 complete control)
# [12] = Rate 500 g/ha, scale of 0 to 10 where 0 is no effect and 10 is complete control
smiles,measurement,setting,value
Cc1ccccc1-n1c(=O)on(C(=O)N(c2ccc(F)cc2F)C2CC2)c1=O [Compound 50],S. Flatsedge plant response rating,smallflower flatsedge; [1],0
same,S. Flatsedge plant response rating,smallflower flatsedge; [2],0
same,S. Flatsedge plant response rating,smallflower flatsedge; [3],0
same,S. Flatsedge plant response rating,smallflower flatsedge; [4],0
same,Ducksalad plant response rating,duck salad; [1],0
same,Ducksalad plant response rating,duck salad; [2],0
same,Ducksalad plant response rating,duck salad; [3],0
same,Ducksalad plant response rating,duck salad; [4],0
same,Barnyardgrass plant response rating,bamyardgrass; [1],0
same,Barnyardgrass plant response rating,bamyardgrass; [2],0
same,Barnyardgrass plant response rating,bamyardgrass; [3],0
same,Barnyardgrass plant response rating,bamyardgrass; [4],0
same,Rice plant response rating,rice; [1],0
same,Rice plant response rating,rice; [2],0
same,Rice plant response rating,rice; [3],0
same,Rice plant response rating,rice; [4],0
same,Corn plant response rating,"corn; Rate 125 g/ha, Postemergence, scale 0 to 10, 0 no effect, 10 complete control",0
CC(C)N(C(=O)n1oc(=O)n(C(C)C2CCC2)c1=O)c1ccc(Cl)cc1 (stereo not shown) [Compound 701],"Plant response rating, S. Flatsedge (0 to 10 scale, 0 is no effect, 10 is complete control)",smallflower flatsedge; [5],0
same,"S. Flatsedge plant response rating (0 to 10 scale, 0 is no effect, 10 is complete control)",smallflower flatsedge; [6],0
same,S. Flatsedge plant response rating,smallflower flatsedge; [7],0
same,S. Flatsedge plant response rating,smallflower flatsedge; [8],0
same,Soybean plant response rating,soybean; Rate 62 g/ha,0
same,"Plant response rating, Soybean",soybean; Rate 125 g/ha,0
same,Rape plant response rating,rape; Rate 62 g/ha,0
same,"Plant response rating, Rape",rape; Rate 125 g/ha,0
same,Redroot pigweed plant response rating,pigweed; Rate 62 g/ha,0
same,"Plant response rating, Redroot pigweed",pigweed; Rate 125 g/ha,0
same,"Plant response rating, Ducksalad (0 to 10 scale, 0 is no effect, 10 is complete control)",duck salad; [5],0
same,"Ducksalad plant response rating (0 to 10 scale, 0 is no effect, 10 is complete control)",duck salad; [6],0
same,Ducksalad plant response rating,duck salad; [7],0
same,Ducksalad plant response rating,duck salad; [8],3
same,Giant foxtail plant response rating,giant foxtail; Rate 62 g/ha,6
same,"Plant response rating, Giant foxtail",giant foxtail; Rate 125 g/ha,10
same,"Plant response rating, Barnyardgrass (0 to 10 scale, 0 is no effect, 10 is complete control)",bamyardgrass; [5],0
same,"Barnyardgrass plant response rating (0 to 10 scale, 0 is no effect, 10 is complete control)",bamyardgrass; [6],0
same,Barnyardgrass plant response rating,bamyardgrass; [7],0
same,Barnyardgrass plant response rating,bamyardgrass; [8],0
same,Sugarbeets plant response rating,sugar beet; Rate 62 g/ha,0
same,"Plant response rating, Sugarbeets",sugar beet; Rate 125 g/ha,0
same,Wheat plant response rating,wheat; Rate 62 g/ha,0
same,"Plant response rating, Wheat",wheat; Rate 125 g/ha,0
same,Bedstraw plant response rating,bedstraw; [9],0
same,"Plant response rating, Bedstraw",bedstraw; [10],0
same,"Plant response rating, Bedstraw",bedstraw; [11],0
same,"Plant response rating, Bedstraw",bedstraw; [12],0
same,Cocklebur plant response rating,cocklebur; [9],0
same,"Plant response rating, Cocklebur",cocklebur; [10],0
same,"Plant response rating, Cocklebur",cocklebur; [11],0
same,"Plant response rating, Cocklebur",cocklebur; [12],0
same,Blackgrass plant response rating,blackgrass; [9],0
same,"Plant response rating, Blackgrass",blackgrass; [10],2
same,"Plant response rating, Blackgrass",blackgrass; [11],2
same,"Plant response rating, Blackgrass",blackgrass; [12],6
same,Crabgrass plant response rating,crabgrass; [9],0
same,"Plant response rating, Crabgrass",crabgrass; [10],10
same,"Plant response rating, Crabgrass",crabgrass; [11],10
same,B. signalgrass plant response rating,surinam grass; [9],0
same,"Plant response rating, B. signalgrass",surinam grass; [10],0
same,"Plant response rating, B. signalgrass",surinam grass; [11],0
same,"Plant response rating, B. signalgrass",surinam grass; [12],0
same,Nutsedge plant response rating,purple nutsedge,0
same,Wild oats plant response rating,wild oat; Rate 62 g/ha,0
same,"Plant response rating, Wild oats",wild oat; Rate 125 g/ha,0
same,Morningglory plant response rating,morningglory; Rate 62 g/ha,0
same,"Plant response rating, Morningglory",morningglory; Rate 125 g/ha,0
same,Velvetleaf plant response rating,velvetleaf; Rate 62 g/ha,0
same,"Plant response rating, Velvetleaf",velvetleaf; Rate 125 g/ha,0
same,Corn plant response rating,"corn; Preemergence, Rate 62 g/ha, scale of 0 to 10 where 0 is no effect and 10 is complete control",0
same,"Plant response rating, Corn","corn; Preemergence, Rate 125 g/ha, scale of 0 to 10 where 0 is no effect and 10 is complete control",0
same,"Plant response rating, Corn","corn; Preemergence, Rate 250 g/ha, scale 0 to 10 (0 no effect, 10 complete control)",0

# From US6737383B1, “Herbicidal oxadiazolidines” (priority 1999, dated 2004)
